Seven compounds from ChEMBL document CHEMBL2150974 (J Med Chem, 2012) can be followed below.

Test [1] has as its target T1, Mitogen-activated protein kinase 14 (Homo sapiens, UniProt Q16539). Description: Inhibition of p38alpha by immunosorbent based kinase assay.
The target of test [2] is T1, Mitogen-activated protein kinase 14. Description: Inhibition of p38alpha-dependent TNFalpha production in human whole blood.
Test [3] has as its target RAC-alpha serine/threonine-protein kinase (Homo sapiens) (UniProt P31749). Briefly: Inhibition of AKT1 at 10 uM.
The target in test [4] is T2, Serine/threonine-protein kinase PLK4 (Homo sapiens) (UniProt O00444).
T2 sequence (whole entry): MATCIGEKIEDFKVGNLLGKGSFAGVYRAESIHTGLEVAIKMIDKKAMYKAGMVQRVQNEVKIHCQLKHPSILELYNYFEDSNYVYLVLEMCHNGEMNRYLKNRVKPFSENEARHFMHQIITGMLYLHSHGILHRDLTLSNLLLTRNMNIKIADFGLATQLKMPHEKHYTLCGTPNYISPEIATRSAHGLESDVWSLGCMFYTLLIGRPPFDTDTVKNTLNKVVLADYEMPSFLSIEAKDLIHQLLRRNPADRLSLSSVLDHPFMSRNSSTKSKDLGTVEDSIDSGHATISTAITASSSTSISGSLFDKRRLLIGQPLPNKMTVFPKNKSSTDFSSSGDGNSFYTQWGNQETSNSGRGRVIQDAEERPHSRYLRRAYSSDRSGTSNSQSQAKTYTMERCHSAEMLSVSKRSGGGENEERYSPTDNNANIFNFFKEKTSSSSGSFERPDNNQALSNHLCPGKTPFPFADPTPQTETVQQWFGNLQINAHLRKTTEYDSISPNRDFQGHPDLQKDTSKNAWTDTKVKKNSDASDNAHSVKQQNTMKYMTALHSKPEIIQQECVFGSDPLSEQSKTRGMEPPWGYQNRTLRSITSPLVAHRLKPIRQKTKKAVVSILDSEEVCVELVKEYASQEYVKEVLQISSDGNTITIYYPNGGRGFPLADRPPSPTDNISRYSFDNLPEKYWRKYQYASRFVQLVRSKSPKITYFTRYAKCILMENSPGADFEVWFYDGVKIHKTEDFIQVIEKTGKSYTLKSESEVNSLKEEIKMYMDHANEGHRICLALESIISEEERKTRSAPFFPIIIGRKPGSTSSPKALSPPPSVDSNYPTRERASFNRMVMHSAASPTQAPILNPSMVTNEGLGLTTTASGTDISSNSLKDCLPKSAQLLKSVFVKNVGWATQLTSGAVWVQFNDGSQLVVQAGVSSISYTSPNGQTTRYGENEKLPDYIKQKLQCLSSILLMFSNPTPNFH
Description: Inhibition of SAK at 10 uM.

The target of test [5] is T3, NUAK family SNF1-like kinase 1 (Homo sapiens) (UniProt O60285).
T3 sequence (whole entry): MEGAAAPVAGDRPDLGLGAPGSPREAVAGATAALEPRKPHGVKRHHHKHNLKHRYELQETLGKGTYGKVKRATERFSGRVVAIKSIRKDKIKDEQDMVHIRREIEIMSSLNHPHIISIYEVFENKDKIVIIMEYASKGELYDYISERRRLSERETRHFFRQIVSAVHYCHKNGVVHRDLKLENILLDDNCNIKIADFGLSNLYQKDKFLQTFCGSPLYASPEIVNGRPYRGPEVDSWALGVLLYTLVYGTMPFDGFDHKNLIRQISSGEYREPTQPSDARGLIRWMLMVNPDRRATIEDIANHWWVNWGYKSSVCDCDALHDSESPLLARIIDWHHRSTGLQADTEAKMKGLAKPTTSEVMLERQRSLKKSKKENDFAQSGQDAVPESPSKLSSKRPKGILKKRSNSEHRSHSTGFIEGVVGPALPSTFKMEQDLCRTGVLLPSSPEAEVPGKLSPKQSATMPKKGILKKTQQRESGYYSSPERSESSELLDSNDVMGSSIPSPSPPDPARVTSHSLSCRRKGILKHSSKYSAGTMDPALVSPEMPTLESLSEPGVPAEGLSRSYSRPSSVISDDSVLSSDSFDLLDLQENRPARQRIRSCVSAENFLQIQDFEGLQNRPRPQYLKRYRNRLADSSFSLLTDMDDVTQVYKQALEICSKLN
Briefly: Inhibition of ARK5 at 10 uM.

For test [6], the target named is BDNF/NT-3 growth factors receptor (Homo sapiens) (UniProt Q16620). Description: Inhibition of TRKB at 10 uM.
Test [7] concerns the target Aurora kinase B (Homo sapiens) (UniProt Q96GD4). Description: Inhibition of AuroraB at 10 uM.
For test [8], the target named is Proto-oncogene tyrosine-protein kinase Src (Homo sapiens) (UniProt P12931). Briefly: Inhibition of SRC at 10 uM.
In test [9] the test system is Serine/threonine-protein kinase B-raf (Homo sapiens), P15056 [V600E]. Description: Inhibition of BRAF V600E mutant at 10 uM.
Test [10] has as its target Vascular endothelial growth factor receptor 2 (Homo sapiens) (UniProt P35968). Description: Inhibition of VEGFR2 at 10 uM.
Test [11] concerns the target Insulin receptor (Homo sapiens) (UniProt P06213). Briefly: Inhibition of INSR at 10 uM.
Test [12] concerns the target Insulin-like growth factor 1 receptor (Homo sapiens) (UniProt P08069). Description: Inhibition of IGF1R at 10 uM.
Test [13] concerns the target Hepatocyte growth factor receptor (Homo sapiens) (UniProt P08581). Briefly: Inhibition of MET at 10 uM.
The target of test [14] is Focal adhesion kinase 1 (Homo sapiens) (UniProt Q05397). Briefly: Inhibition of FAK at 10 uM.
The target in test [15] is Serine/threonine-protein kinase PLK1 (Homo sapiens) (UniProt P53350). Briefly: Inhibition of PLK1 at 10 uM.
For test [16], the target named is Tyrosine-protein kinase receptor UFO (Homo sapiens) (UniProt P30530). Briefly: Inhibition of AXL at 10 uM.
In test [17] the target is Serine/threonine-protein kinase N1 (Homo sapiens) (UniProt Q16512). Description: Inhibition of PRK1 at 10 uM.
Test [18] has as its target Casein kinase II subunit alpha (Homo sapiens) (UniProt P68400). Briefly: Inhibition of CK2alpha1 at 10 uM.

Calls of active or inactive are those of the source. The calls are words filed in the database; no cut-off is given here.

Serine/threonine-protein kinase B-raf (Homo sapiens), P15056 [V600E], sequence (P15056 whole entry V600E): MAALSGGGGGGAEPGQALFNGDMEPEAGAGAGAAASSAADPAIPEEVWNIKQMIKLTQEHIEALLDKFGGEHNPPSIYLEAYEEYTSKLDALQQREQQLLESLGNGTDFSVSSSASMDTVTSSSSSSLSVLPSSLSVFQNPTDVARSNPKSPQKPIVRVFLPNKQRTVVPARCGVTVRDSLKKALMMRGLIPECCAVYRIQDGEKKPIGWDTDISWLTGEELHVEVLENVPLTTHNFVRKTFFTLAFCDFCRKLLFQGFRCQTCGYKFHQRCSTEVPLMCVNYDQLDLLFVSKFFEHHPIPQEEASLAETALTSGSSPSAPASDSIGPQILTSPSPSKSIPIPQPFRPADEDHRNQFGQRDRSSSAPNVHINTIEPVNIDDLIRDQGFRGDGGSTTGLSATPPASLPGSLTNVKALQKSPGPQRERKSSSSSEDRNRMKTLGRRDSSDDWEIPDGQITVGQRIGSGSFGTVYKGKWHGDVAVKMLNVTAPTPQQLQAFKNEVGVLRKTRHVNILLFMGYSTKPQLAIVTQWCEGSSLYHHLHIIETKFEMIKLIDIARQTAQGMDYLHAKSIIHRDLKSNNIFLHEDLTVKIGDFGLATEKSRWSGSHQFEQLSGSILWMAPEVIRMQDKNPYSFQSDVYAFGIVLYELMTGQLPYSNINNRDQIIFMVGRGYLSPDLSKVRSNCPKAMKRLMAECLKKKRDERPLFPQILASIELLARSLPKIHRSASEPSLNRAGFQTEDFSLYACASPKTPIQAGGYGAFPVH
Proto-oncogene tyrosine-protein kinase Src (Homo sapiens), sequence (P12931 2-536 limits assumed): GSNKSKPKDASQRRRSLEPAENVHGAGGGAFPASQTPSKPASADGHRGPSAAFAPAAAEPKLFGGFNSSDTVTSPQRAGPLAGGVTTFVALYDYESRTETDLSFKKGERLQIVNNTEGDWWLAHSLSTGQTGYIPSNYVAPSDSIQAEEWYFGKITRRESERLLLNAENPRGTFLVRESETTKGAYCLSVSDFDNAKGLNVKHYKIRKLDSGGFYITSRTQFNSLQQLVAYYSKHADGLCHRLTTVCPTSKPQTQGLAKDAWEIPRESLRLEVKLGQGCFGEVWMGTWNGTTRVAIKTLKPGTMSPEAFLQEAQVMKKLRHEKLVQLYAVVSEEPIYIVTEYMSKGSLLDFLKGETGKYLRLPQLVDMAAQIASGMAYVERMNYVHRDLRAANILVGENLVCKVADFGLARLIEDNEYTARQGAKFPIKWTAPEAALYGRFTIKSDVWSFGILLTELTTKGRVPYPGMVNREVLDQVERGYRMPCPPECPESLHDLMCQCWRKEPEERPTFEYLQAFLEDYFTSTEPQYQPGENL
Insulin-like growth factor 1 receptor (Homo sapiens), sequence (P08069 31-736 limits assumed): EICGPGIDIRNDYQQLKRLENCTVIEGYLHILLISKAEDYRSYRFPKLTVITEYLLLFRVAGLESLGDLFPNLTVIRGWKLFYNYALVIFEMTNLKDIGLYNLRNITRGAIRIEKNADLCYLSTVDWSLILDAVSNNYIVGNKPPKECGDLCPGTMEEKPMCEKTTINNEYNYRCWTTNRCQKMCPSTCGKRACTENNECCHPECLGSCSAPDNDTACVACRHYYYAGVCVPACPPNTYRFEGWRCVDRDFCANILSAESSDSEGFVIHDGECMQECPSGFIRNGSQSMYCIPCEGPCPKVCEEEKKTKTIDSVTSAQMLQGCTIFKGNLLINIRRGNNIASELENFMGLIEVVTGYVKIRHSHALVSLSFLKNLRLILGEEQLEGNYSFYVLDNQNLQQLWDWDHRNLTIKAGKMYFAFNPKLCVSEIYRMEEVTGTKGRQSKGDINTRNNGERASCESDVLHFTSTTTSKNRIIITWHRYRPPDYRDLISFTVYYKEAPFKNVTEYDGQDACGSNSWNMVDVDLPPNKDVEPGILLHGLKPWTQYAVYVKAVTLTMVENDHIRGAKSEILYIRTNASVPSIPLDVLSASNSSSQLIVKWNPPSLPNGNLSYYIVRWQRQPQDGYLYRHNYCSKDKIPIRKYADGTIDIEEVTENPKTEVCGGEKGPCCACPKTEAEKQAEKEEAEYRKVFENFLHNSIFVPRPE
Insulin-like growth factor 1 receptor (Homo sapiens), sequence (P08069 741-1367 limits assumed): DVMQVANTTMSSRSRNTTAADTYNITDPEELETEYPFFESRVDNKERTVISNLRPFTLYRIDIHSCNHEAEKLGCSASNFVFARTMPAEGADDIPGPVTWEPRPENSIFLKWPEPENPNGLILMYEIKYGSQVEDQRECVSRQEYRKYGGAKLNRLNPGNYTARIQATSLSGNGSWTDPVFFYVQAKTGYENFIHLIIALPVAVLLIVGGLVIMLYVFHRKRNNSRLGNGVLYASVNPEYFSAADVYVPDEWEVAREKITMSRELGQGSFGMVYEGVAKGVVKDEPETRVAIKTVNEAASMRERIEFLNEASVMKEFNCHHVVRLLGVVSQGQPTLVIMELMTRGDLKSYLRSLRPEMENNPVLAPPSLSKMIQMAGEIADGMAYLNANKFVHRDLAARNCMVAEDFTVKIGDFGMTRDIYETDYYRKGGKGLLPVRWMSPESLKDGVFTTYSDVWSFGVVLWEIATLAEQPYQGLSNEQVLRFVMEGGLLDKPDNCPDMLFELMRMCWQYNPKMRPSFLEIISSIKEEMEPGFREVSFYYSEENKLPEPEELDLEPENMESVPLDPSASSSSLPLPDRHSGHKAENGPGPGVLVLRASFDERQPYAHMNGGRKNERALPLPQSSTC
Casein kinase II subunit alpha (Homo sapiens), sequence (P68400 whole entry, looked up): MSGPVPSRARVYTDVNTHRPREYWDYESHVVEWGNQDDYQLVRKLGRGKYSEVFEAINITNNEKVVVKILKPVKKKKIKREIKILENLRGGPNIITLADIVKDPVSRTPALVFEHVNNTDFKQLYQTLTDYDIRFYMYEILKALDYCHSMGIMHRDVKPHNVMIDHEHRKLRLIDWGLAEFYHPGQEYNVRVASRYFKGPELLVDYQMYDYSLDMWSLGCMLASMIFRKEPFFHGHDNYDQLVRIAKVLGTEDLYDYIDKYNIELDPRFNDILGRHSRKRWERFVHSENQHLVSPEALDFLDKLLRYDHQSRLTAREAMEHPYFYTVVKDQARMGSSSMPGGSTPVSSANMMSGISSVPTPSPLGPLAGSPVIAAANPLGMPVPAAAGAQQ
Hepatocyte growth factor receptor (Homo sapiens), sequence (P08581 whole entry): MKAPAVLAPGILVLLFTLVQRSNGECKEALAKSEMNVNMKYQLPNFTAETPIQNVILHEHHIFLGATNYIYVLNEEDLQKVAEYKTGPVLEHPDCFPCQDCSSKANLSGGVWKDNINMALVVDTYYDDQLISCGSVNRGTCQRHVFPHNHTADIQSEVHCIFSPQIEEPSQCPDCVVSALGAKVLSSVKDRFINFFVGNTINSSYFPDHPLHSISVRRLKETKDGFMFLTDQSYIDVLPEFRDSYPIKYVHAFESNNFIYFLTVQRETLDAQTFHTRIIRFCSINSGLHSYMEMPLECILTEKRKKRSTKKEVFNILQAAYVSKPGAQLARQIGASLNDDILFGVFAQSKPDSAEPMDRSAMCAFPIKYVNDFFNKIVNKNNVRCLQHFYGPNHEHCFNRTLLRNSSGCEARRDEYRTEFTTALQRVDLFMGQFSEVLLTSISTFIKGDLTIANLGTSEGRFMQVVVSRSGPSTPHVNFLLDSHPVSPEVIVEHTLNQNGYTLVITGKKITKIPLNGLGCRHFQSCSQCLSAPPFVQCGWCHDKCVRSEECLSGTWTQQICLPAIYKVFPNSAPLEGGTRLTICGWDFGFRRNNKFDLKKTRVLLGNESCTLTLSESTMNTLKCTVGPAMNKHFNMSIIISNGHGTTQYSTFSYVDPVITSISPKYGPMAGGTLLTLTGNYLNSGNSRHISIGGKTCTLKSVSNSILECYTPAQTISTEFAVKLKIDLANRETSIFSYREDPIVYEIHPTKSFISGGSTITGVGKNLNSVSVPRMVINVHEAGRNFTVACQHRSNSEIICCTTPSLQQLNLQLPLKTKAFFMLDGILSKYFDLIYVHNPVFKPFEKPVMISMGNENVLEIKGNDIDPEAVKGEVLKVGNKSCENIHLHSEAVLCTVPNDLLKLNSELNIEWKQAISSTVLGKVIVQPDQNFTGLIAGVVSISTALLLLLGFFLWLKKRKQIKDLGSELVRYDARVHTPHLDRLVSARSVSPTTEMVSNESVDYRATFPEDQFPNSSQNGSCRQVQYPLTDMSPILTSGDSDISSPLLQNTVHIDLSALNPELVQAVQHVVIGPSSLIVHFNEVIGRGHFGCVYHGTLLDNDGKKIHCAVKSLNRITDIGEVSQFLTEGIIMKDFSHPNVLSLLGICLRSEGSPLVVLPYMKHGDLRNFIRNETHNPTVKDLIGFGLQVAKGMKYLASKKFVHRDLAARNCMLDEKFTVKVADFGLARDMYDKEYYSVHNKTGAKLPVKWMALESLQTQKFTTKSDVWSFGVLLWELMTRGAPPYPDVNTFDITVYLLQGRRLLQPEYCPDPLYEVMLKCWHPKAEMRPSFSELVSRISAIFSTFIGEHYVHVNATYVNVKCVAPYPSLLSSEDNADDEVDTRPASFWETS
Serine/threonine-protein kinase PLK1 (Homo sapiens), sequence (P53350 whole entry): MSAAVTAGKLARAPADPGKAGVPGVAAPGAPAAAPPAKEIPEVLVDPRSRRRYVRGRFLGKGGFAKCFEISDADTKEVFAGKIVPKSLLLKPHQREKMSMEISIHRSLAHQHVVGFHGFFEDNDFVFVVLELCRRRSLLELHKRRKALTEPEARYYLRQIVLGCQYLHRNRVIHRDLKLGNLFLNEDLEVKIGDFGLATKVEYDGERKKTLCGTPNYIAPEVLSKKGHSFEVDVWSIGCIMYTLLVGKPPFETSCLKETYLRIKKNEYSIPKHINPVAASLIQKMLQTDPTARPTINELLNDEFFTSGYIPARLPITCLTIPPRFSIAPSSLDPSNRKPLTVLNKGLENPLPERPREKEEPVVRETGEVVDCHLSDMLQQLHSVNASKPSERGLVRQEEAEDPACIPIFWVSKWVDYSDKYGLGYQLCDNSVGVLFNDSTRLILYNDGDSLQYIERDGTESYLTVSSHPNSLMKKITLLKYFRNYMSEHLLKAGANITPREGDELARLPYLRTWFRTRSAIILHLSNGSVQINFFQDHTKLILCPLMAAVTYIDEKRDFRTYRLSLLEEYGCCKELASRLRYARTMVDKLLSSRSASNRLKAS

For the compound `COc1ccc2c(c1)C(=O)c1ccc(Nc3ccccc3Cl)cc1CC2`, the IC50 (commonly the concentration that inhibits the measured activity by half) turned out to be 560 nM in test [1] and 4600 nM in test [2]. The inhibition entry in test [3], in [4], in [5], in [6], in test [7] and in [8] was “inactive” throughout. The inhibition result in test [9], in [10], in test [11], in test [12], in test [13] and in test [14] was “inactive” each time. Also, the inhibition entry in [15], in test [16], in test [17] and in [18] was “inactive” in each case.
Turning to `COc1ccc2c(c1)C(=O)c1ccc(Nc3ccc(F)cc3C)cc1CC2`, the IC50 turned out to be 60 nM in test [1] and 3900 nM in test [2]. The inhibition entry in test [3], in test [4], in [5], in test [6], in test [7] and in [8] was “inactive” throughout. For the same compound, the inhibition result in [9], in test [10], in test [11], in test [12], in test [13] and in test [14] was “inactive” in each case. The inhibition result in test [15], in test [16], in [17] and in test [18] was “inactive” in each case.
On to `COc1cccc2c1CCc1cc(Nc3ccc(F)cc3F)ccc1C2=O`, for which the values for the concentration for half-maximal inhibition (IC50) in test [1] and in test [2] were 80 nM and 78700 nM, respectively. For the same compound, the inhibition result in test [3], in [4], in test [5], in [6], in [7] and in test [8] was “inactive” in each case. For the same compound, the inhibition entry in test [9], in test [10], in [11], in test [12], in test [13] and in [14] was “inactive” throughout. The inhibition entry in test [15], in test [16], in [17] and in test [18] was “inactive” throughout.
Regarding `CC1(C)OC[C@H](COc2cccc3c2CCc2cc(Nc4ccccc4N)ccc2C3=O)O1`, the values for the IC50 in [1] and in test [2] were 1040 nM and 158000 nM, respectively. Moreover, the inhibition result in test [3], in test [4], in test [5], in [6], in test [7] and in test [8] was “inactive” in each case. The inhibition result in [9], in test [10], in [11], in [12], in test [13] and in test [14] was “inactive” throughout. The inhibition result in [15], in test [16], in test [17] and in test [18] was “inactive” in each case.
For `Nc1ccccc1Nc1ccc2c(c1)CCc1ccc(OC[C@H](O)CO)cc1C2=O`, the values for the IC50 in [1] and in test [2] were 20 nM and 80 nM, respectively. The inhibition entry in test [3], in [4], in test [5], in test [6], in test [7] and in test [8] was “inactive” in each case. Moreover, the inhibition result in [9], in test [10], in test [11], in test [12], in test [13] and in test [14] was “inactive” each time. Besides, the inhibition entry in test [15], in test [16], in test [17] and in [18] was “inactive” each time.
Consider `O=C1c2ccc(Nc3ccc(F)cc3F)cc2CCc2ccc(OC3CCOCC3)cc21`, for which the half-inhibitory concentration (IC50) in [1] was determined as 60 nM; in test [2], 530 nM. For the same compound, the inhibition entry in test [3], in [4], in [5], in [6], in test [7] and in test [8] was “inactive” each time. Also, the inhibition result in [9], in test [10], in [11], in [12], in test [13] and in test [14] was “inactive” each time. Further, the inhibition result in test [15], in test [16], in test [17] and in test [18] was “inactive” each time.
Turning to `COc1ccc2c(c1)C(=O)c1ccc(Nc3ccccc3C(F)(F)F)cc1CC2`, the IC50 in [1] was 400 nM; in [2], 33600 nM. Also, the inhibition result in test [3], in [4], in [5], in [6], in [7] and in [8] was “inactive” in each case. In addition, the inhibition entry in [9], in test [10], in [11], in [12], in test [13] and in test [14] was “inactive” throughout. Besides, the inhibition entry in test [15], in test [16], in test [17] and in [18] was “inactive” throughout.
